The text below walks through data of PubChem BioAssay (NCI).

Among the test systems are A549 NSCLC; CAKI-1 renal; HL-60(TB) leukemia; HOP-62 NSCLC; M14 melanoma; MALME-3M melanoma; NCI-H460 lung; SF-268 CNS; A498 renal.
Experiment in all cases: NCI-60 cell line screen, 48 h

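Grown in 96-well plates, cells were treated for 48 hours with each compound at five concentrations. Insufficient inhibition: endpoint recorded as highest concentration tested. At the GI50, growth is halved. TGI: total growth inhibition.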 Where only a bound is given, the exact number is not on record here.

In the case of `CCN1C(=O)C(N=[N+]=[N-])(c2ccccc2)C(=O)c2ccccc21` (stereo not given), the TGI in the assay with A549 NSCLC, in the assay on CAKI-1 renal, in the assay with HL-60(TB) leukemia, in the assay with HOP-62 NSCLC, in the assay on M14 melanoma and in the assay with MALME-3M melanoma was greater than 100 µM in each case. Besides, the TGI in the assay with NCI-H460 lung and in the assay with SF-268 CNS was greater than 100 µM each time.
With `CC1=C2[C@@H](c3ccccc3)C3C=CC2(c2ccccc23)N(C(=O)Nc2cccc3ccccc23)C1=O` (stereo not given in full), the TGI in the assay with A498 renal, in the assay with A549 NSCLC, with CAKI-1 renal, in the assay with HL-60(TB) leukemia, in the assay on HOP-62 NSCLC and with M14 melanoma was greater than 100 µM in each case. For the same compound, the TGI in the assay on MALME-3M melanoma and in the assay on SF-268 CNS was greater than 100 µM throughout.
Turning to `CCOC1=C2C(C)(CCC3[C@@]4(C)C=CC(=O)C(C)(C)C4CC(O)[C@@]23C)C(c2ccoc2)C1=O` (stereo not given in full), the TGI was 33.9 µM in the assay with A498 renal; 98.6 µM in the assay on A549 NSCLC; greater than 100 µM in the assay with CAKI-1 renal; 36.3 µM with HL-60(TB) leukemia; 36.8 µM in the assay with HOP-62 NSCLC; greater than 100 µM in the assay on M14 melanoma. Further, the results for the TGI with NCI-H460 lung and in the assay with SF-268 CNS were 28.4 µM and greater than 100 µM, respectively.
On to `Cc1ccc(S(=O)(=O)NC(=O)C#CCOC2CCCCO2)cc1` (stereo not given), for which the TGI with A498 renal, in the assay on A549 NSCLC, in the assay on CAKI-1 renal, in the assay on HL-60(TB) leukemia, with M14 melanoma and in the assay with MALME-3M melanoma was greater than 100 µM in each case. The compound also came in with a TGI in the assay with NCI-H460 lung greater than 100 µM.
Consider `O=C(NCCCCCCNC(=O)NC1OCC(O)C(O)C1O)NC1OCC(O)C(O)C1O` (stereo not given), for which the TGI in the assay on A549 NSCLC, in the assay on CAKI-1 renal, in the assay on HL-60(TB) leukemia, in the assay on HOP-62 NSCLC, in the assay on M14 melanoma and in the assay with MALME-3M melanoma was greater than 100 µM each time. Moreover, the TGI in the assay with NCI-H460 lung and in the assay on SF-268 CNS was greater than 100 µM in each case.
For `C[C@]12CC/C(=N\OC(=O)Nc3ccccc3)C=C1CC[C@@H]1C2CC[C@@]2(C)C1CC[C@@H]2OC(=O)Nc1ccccc1` (stereo not given in full), the TGI is greater than 100 µM in the assay on A498 renal; greater than 100 µM in the assay with A549 NSCLC; 19.8 µM in the assay with CAKI-1 renal; greater than 100 µM with HL-60(TB) leukemia; greater than 100 µM with M14 melanoma; greater than 100 µM with NCI-H460 lung. The TGI in the assay with SF-268 CNS is greater than 100 µM.
For `COc1cccc(N2C(=O)[C@H]3[C@H]4CC(C(C)(C)C)CC[C@H]4c4c([nH]c5ccccc45)[C@H]3C2=O)c1` (stereo not given in full), the TGI with A549 NSCLC was 29 µM; with CAKI-1 renal, 32.3 µM; with HL-60(TB) leukemia, greater than 100 µM; in the assay with HOP-62 NSCLC it was 31.7 µM; in the assay with M14 melanoma it was 30.7 µM; in the assay on MALME-3M melanoma it was 47.4 µM. Also, the TGI in the assay with SF-268 CNS came to 54.7 µM.
As to `COc1ccc2c([nH]c3cc(O)c(C)cc32)c1CC=C(C)C`, the GI50 in the assay on A549 NSCLC is 8.47 µM; in the assay with HL-60(TB) leukemia, 7.94 µM; in the assay on M14 melanoma it was 1.62 µM; in the assay with MALME-3M melanoma, 17.3 µM; in the assay with NCI-H460 lung it was 5.56 µM; with SF-268 CNS it was 9.66 µM. In addition, the TGI was greater than 25 µM with A549 NSCLC; greater than 25 µM in the assay on HL-60(TB) leukemia; 9.29 µM with M14 melanoma; greater than 25 µM in the assay on MALME-3M melanoma; 14.1 µM in the assay on NCI-H460 lung; greater than 25 µM in the assay on SF-268 CNS.
`Cc1ccc(C(O)/C(=N/N)c2nc3ccc([N+](=O)[O-])cc3[nH]c2=O)cc1` (stereo not given): the TGI in the assay on A549 NSCLC, in the assay with HL-60(TB) leukemia, in the assay with HOP-62 NSCLC, in the assay with M14 melanoma, in the assay on MALME-3M melanoma and in the assay on NCI-H460 lung was greater than 100 µM each time. Moreover, the TGI with SF-268 CNS was greater than 100 µM.
`CC(=O)O[C@]12CCCCC1C1(O)C(O)CCCC[C@H]12` (stereo not given in full): the TGI in the assay on A549 NSCLC, in the assay with HL-60(TB) leukemia, in the assay with HOP-62 NSCLC, in the assay with M14 melanoma, in the assay on MALME-3M melanoma and in the assay with NCI-H460 lung was greater than 100 µM throughout. In the assay on SF-268 CNS, this compound yielded a TGI greater than 100 µM.
With `CCOc1ccc(N=Nc2c(-c3ccccc3)nn(C(=O)CC(=O)Nc3cccc(C)c3)c2-c2ccccc2)cc1`, the TGI in the assay on A549 NSCLC, with CAKI-1 renal, in the assay with HL-60(TB) leukemia, in the assay with HOP-62 NSCLC, in the assay with M14 melanoma and in the assay with MALME-3M melanoma was greater than 100 µM each time. The TGI in the assay with NCI-H460 lung and in the assay with SF-268 CNS was greater than 100 µM in each case.
With `C/C=C/C=C\C(=O)C1c2cccc(O)c2C(=O)c2c(O)cc(C)cc21` (stereo not given), the TGI in the assay on A498 renal was determined as 7.76 µM; in the assay with A549 NSCLC, 2.13 µM; with CAKI-1 renal, 4.34 µM; in the assay with HL-60(TB) leukemia it was 7.04 µM; in the assay with HOP-62 NSCLC it was 4.27 µM; in the assay with MALME-3M melanoma, 3.12 µM. Also, the TGI with NCI-H460 lung came out at 1.47 µM; in the assay on SF-268 CNS, 2.05 µM.
